According to US20210300924A1, “5-[6-[[3-(4,5,6,7-TETRAHYDROPYRAZOLO[4,3-C]PYRIDIN-1-YL)AZETIDIN-1-YL]METHYL]MORPHOLIN-4-YL]QUINOLINE-8-CARBONITRILE DERIVATIVES AND SIMILAR COMPOUNDS AS TLR7-9 ANTAGONISTS FOR TREATING SYSTEMIC LUPUS ERYTHEMATOSUS” (Hoffmann-La Roche Inc., priority 2018, published 2021):

Target: T1, human TLR8 (Homo sapiens, UniProt Q9NR97)
T1 construct: host or cells: HEK293 (HEK-Blue hTLR8)
T1 sequence (Q9NR97 27-1041): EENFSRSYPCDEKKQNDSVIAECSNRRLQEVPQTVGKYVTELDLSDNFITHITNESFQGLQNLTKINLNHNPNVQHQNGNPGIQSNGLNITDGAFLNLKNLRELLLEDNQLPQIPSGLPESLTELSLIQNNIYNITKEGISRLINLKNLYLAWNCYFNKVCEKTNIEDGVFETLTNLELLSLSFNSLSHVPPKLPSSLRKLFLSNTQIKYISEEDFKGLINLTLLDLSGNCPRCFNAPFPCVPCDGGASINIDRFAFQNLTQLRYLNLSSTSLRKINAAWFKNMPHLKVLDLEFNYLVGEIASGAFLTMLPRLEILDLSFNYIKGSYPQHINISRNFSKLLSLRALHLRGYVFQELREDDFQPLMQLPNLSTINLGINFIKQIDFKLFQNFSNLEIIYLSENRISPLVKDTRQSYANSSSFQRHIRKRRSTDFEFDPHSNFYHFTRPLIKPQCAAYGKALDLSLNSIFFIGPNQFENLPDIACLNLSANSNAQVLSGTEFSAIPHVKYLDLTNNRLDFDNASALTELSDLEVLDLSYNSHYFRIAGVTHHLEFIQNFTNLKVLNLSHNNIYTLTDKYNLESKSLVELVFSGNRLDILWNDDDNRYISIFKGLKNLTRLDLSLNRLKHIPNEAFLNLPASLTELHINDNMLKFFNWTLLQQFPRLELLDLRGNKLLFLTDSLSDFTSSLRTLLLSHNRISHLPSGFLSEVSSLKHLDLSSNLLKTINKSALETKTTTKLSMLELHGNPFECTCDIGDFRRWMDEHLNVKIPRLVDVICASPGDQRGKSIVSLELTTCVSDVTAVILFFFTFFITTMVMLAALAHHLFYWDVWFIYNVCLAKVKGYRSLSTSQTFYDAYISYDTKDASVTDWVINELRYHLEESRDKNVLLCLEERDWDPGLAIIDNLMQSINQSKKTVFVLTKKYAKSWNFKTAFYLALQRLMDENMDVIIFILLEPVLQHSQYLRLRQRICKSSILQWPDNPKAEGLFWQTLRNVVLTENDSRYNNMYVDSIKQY
Assay: HEK293-Blue-hTLR-8 cells assay
Format: cell-based
Details: HEK293-Blue-hTLR8 cells, R848 stimulation, 20 hrs, SEAP reporter; read-out: HEK/hTLR8 IC50
Source text: A stable HEK293-Blue-hTLR-8 cell line was purchased from InvivoGen (Cat. #: hkb-htlr8, San Diego, Calif., USA). These cells were originally designed for studying the stimulation of human TLR8 by monitoring the activation of NF-κB. A SEAP (secreted embryonic alkaline phosphatase) reporter gene was placed under the control of the IFN-β minimal promoter fused to five NF-κB and AP-1-binding sites. The SEAP was induced by activating NF-κB and AP-1 via stimulating HEK-Blue hTLR8 cells with TLR8 ligands. Therefore the reporter expression was declined by TLR8 antagonist under the stimulation of a ligand, such as R848, for incubation of 20 hrs. The cell culture supernatant SEAP reporter activity was determined using QUANTI-Blue™ kit (Cat. #: rep-qb1, Invivogen, San Diego, Ca, USA) at a wavelength of 640 nm, a detection medium that turns purple or blue in the presence of alkaline phosphatase.
HEK293-Blue-hTLR8 cells were incubated at a density of 250,000-450,000 cells/mL in a volume of 170 μL in a 96-well plate in Dulbecco's Modified Eagle's medium (DMEM) containing 4.5 g/L glucose, 50 U/mL penicillin, […], […], 2 mM L-glutamine, 10% (v/v) heat-inactivated fetal bovine serum with addition of 20 μL test compound in a serial dilution in the presence of final DMSO at 1% and 10 μL of 60 uM R848 in above DMEM, perform incubation under 37° C. in a CO2 incubator for 20 hrs. Then 20 μL of the supernatant from each well was incubated with […] Quanti-blue substrate solution at 37° C. for 2 hrs and the absorbance was read at 620-655 nm using a spectrophotometer. The signaling pathway that TLR8 activation leads to downstream NF-κB activation has been widely accepted, and therefore similar reporter assay was modified for evaluating TLR8 antagonist.

Structure (SMILES)	IC50 [nM]
C[C@@H]1Cc2c(cnn2C2CN(C[C@H]3CN(c4ccc(C#N)c5ncccc45)C[C@@H](C)O3)C2)CN1 [Example 16, 5-[(2R,6S)-2-methyl-6-[[3-[(6R)-6-methyl-4,5,6,7-tetrahydropyrazolo[4,3-c]pyridin-1-yl]azetidin-1-yl]methyl]morpholin-4-yl]quinoline-8-carbonitrile]	16
C[C@@H]1Cc2nn(C3CN(C[C@H]4CN(c5ccc(C#N)c6ncccc56)C[C@@H](C)O4)C3)cc2CN1 [Example 17, 5-[(2R,6S)-2-methyl-6-[[3-[(6R)-6-methyl-4,5,6,7-tetrahydropyrazolo[4,3-c]pyridin-2-yl]azetidin-1-yl]methyl]morpholin-4-yl]quinoline-8-carbonitrile]	18
C[C@@H]1CN(c2ccc(C#N)c3ncccc23)C[C@H](CN2CC(n3ncc4c3C[C@H](C)NC4)C2)O1 [Example 18, 5-[(2R,6S)-2-methyl-6-[[3-[(6S)-6-methyl-4,5,6,7-tetrahydropyrazolo[4,3-c]pyridin-1-yl]azetidin-1-yl]methyl]morpholin-4-yl]quinoline-8-carbonitrile]	19
C[C@@H]1CN(c2ccc(C#N)c3ncccc23)C[C@H](CN2CC(n3cc4c(n3)C[C@H](C)NC4)C2)O1 [Example 19, 5-[(2R,6S)-2-methyl-6-[[3-[(6S)-6-methyl-4,5,6,7-tetrahydropyrazolo[4,3-c]pyridin-2-yl]azetidin-1-yl]methyl]morpholin-4-yl]quinoline-8-carbonitrile]	22
C[C@@H]1CN(c2ccc(C#N)c3ncccc23)C[C@H](CN2CC(n3ncc4c3CCN[C@@H]4C)C2)O1 [Example 20, 5-[(2R,6S)-2-methyl-6-[[3-[(4R)-4-methyl-4,5,6,7-tetrahydropyrazolo[4,3-c]pyridin-1-yl]azetidin-1-yl]methyl]morpholin-4-yl]quinoline-8-carbonitrile]	28
C[C@@H]1CN(c2ccc(C#N)c3ncccc23)C[C@H](CN2CC(n3cc4c(n3)CCN[C@@H]4C)C2)O1 [Example 21, 5-[(2R,6S)-2-methyl-6-[[3-[(4R)-4-methyl-4,5,6,7-tetrahydropyrazolo[4,3-c]pyridin-2-yl]azetidin-1-yl]methyl]morpholin-4-yl]quinoline-8-carbonitrile]	72
C[C@@H]1CN(c2ccc(C#N)c3ncccc23)C[C@H](CN2CC(n3ncc4c3CCN[C@H]4C)C2)O1 [Example 22, 5-[(2R,6S)-2-methyl-6-[[3-[(4S)-4-methyl-4,5,6,7-tetrahydropyrazolo[4,3-c]pyridin-1-yl]azetidin-1-yl]methyl]morpholin-4-yl]quinoline-8-carbonitrile]	37
C[C@@H]1CN(c2ccc(C#N)c3ncccc23)C[C@H](CN2CC(n3cc4c(n3)CCN[C@H]4C)C2)O1 [Example 23, 5-[(2R,6S)-2-methyl-6-[[3-[(4S)-4-methyl-4,5,6,7-tetrahydropyrazolo[4,3-c]pyridin-2-yl]azetidin-1-yl]methyl]morpholin-4-yl]quinoline-8-carbonitrile]	44

The next lines start with the values.

IC50 [nM]	Structure (SMILES)
14	C[C@@H]1CN(c2ccc(C#N)c3ncccc23)C[C@H](CN2CC(n3cc4c(n3)C(C)(C)CNC4)C2)O1 [Example 24, 5-[(2S,6R)-2-[[3-(7,7-dimethyl-5,6-dihydro-4H-pyrazolo[4,3-c]pyridin-2-yl)azetidin-1-yl]methyl]-6-methyl-morpholin-4-yl]quinoline-8-carbonitrile]
25	C[C@@H]1CN(c2ccc(C#N)c3ncccc23)C[C@H](CN2CCC(n3ncc4c3CCNC4)CC2)O1 [Example 35, 5-[(2R,6S)-2-methyl-6-[[4-(4,5,6,7-tetrahydropyrazolo[4,3-c]pyridin-1-yl)-1-piperidyl]methyl]morpholin-4-yl]quinoline-8-carbonitrile]
40	C[C@@H]1CN(c2ccc(C#N)c3ncccc23)C[C@H](CN2CCC(n3cc4c(n3)CCNC4)CC2)O1 [Example 36, 5-[(2R,6S)-2-methyl-6-[[4-(4,5,6,7-tetrahydropyrazolo[4,3-c]pyridin-2-yl)-1-piperidyl]methyl]morpholin-4-yl]quinoline-8-carbonitrile]
18	Cc1nn(C2CN(C[C@H]3CN(c4ccc(C#N)c5ncccc45)C[C@@H](C)O3)C2)c2c1CCNC2 [Example 42, 5-[(2R,6S)-2-methyl-6-[[3-(3-methyl-4,5,6,7-tetrahydropyrazolo[3,4-c]pyridin-1-yl)azetidin-1-yl]methyl]morpholin-4-yl]quinoline-8-carbonitrile]
34	Cc1c2c(nn1C1CN(C[C@H]3CN(c4ccc(C#N)c5ncccc45)C[C@@H](C)O3)C1)CNCC2 [Example 43, 5-[(2R,6S)-2-methyl-6-[[3-(3-methyl-4,5,6,7-tetrahydropyrazolo[3,4-c]pyridin-2-yl)azetidin-1-yl]methyl]morpholin-4-yl]quinoline-8-carbonitrile]
